Reference: publication PMC5428567, “Pentameric ligand-gated ion channels exhibit distinct transmembrane domain archetypes for folding/expression and function” (Scientific Reports, 2017)

What was measured:
[1] = biological target: T1, ELIC W223A + R300A (Dickeya chrysanthemi, UniProt P0C7B7, R300A/W223A); experiment: TEVC cysteamine-induced current, ELIC W223A + R300A; format: cell-based; conditions: Xenopus laevis oocytes; ±SD; n=8
T1 construct: expressed in transfected cells; host or cells: Xenopus laevis oocytes injected with cRNA (pTLN plasmid)
T1 sequence (P0C7B7 whole entry W223A/R300A): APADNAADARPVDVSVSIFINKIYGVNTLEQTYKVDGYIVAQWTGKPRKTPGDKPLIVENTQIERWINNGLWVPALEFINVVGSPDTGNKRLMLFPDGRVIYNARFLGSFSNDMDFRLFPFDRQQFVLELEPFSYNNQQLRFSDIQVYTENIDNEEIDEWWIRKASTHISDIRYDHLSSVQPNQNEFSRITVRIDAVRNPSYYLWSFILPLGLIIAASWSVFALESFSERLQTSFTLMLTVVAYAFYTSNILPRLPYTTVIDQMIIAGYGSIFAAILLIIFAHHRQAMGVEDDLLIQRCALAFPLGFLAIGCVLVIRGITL
Excerpt: (§1) To examine how different physical interactions at the M4-M1/M3 interface in both GLIC and ELIC (Fig. 1) influence function, we mutated each residue to Ala, and characterized how each mutation influenced agonist-induced channel gating using two-electrode voltage clamp electrophysiology. Both GLIC and ELIC are cation-selective ion channels that transiently gate open in response to agonist binding, although GLIC responds to protons while ELIC responds to primary amines, such as cysteamine, [34].
(§2) Stage V–VI oocytes were collected as previously described, injected with cRNA, and allowed to incubate one to four days at 16 °C in ND96 + buffer (5 mM HEPES, 96 mM NaCl, 2 mM KCl, 1 mM MgCl2, 1 mM CaCl2, and 2 mM Pyruvate). Whole cell currents were recorded using a two-electrode voltage clamp apparatus (OC-725C oocyte clamp; Holliston, MA). For GLIC, whole cell currents were recorded from injected oocytes (3–20 ng cRNA) immersed in MES buffer (140 mM NaCl, 2.8 mM KCl, 2 mM MgCl2, and 10 mM MES). Currents through the plasma membrane in response to pH jumps (pH 7.3 down to the indicated pH values) were measured with the transmembrane voltage clamped at voltages between −20 mV and −40 mV depending on the level of expression, typically −20 mV. […]

[2] = system: ELIC L295A; set-up: method as in Henault et al.[9], [18], [29]; conditions: Xenopus laevis oocytes; ±SD; n=8; ref Henault et al.[9], [18], [29]; cited from earlier work
[3] = biological target: T2, ELIC L213A (Dickeya chrysanthemi, UniProt P0C7B7, L213A); experiment: TEVC cysteamine-induced current, ELIC L213A; format: cell-based; conditions: Xenopus laevis oocytes; ±SD; n=8
T2 construct: expressed in transfected cells; host or cells: Xenopus laevis oocytes injected with cRNA
T2 sequence (P0C7B7 whole entry L213A): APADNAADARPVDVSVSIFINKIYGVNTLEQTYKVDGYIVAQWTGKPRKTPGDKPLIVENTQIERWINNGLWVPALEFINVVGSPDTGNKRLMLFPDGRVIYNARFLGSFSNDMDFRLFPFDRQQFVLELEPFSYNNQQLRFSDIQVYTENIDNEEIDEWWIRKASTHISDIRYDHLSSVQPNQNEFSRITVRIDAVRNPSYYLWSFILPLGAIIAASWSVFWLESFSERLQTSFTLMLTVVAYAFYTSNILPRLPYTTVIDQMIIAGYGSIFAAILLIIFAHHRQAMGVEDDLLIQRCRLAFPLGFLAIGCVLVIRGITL
Excerpt: as §1, §2

[4] = biological target: T3, ELIC Q263A (Dickeya chrysanthemi, UniProt P0C7B7, Q263A); experiment: TEVC cysteamine-induced current, ELIC Q263A; format: cell-based; conditions: Xenopus laevis oocytes; ±SD; n=8
T3 construct: expressed in transfected cells; host or cells: Xenopus laevis oocytes injected with cRNA
T3 sequence (P0C7B7 whole entry Q263A): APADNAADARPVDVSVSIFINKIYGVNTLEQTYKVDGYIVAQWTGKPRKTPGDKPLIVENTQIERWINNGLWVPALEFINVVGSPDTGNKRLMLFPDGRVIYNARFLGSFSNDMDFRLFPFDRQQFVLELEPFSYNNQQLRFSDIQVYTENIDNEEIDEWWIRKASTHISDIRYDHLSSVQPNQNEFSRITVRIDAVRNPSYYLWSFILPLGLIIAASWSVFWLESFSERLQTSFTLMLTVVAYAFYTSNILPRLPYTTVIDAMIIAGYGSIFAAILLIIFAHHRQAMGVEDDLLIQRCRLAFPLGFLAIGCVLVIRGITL
Excerpt: as §1, §2

[5] = biological target: T4, ELIC L209A (Dickeya chrysanthemi, UniProt P0C7B7, L209A); experiment: TEVC cysteamine-induced current, ELIC L209A; format: cell-based; conditions: Xenopus laevis oocytes; ±SD; n=8
T4 construct: expressed in transfected cells; host or cells: Xenopus laevis oocytes injected with cRNA
T4 sequence (P0C7B7 whole entry L209A): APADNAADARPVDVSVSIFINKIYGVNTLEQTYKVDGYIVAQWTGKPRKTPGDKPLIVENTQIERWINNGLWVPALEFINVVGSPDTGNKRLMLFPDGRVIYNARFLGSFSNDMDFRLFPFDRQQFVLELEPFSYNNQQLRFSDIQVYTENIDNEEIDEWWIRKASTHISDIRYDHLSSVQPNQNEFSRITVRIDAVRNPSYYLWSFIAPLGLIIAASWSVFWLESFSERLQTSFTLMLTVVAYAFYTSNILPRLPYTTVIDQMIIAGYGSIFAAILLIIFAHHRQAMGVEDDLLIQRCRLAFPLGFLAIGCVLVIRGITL
Excerpt: as §1, §2

[6] = biological target: T5, ELIC G270A (Dickeya chrysanthemi, UniProt P0C7B7, G270A); experiment: TEVC cysteamine-induced current, ELIC G270A; format: cell-based; conditions: Xenopus laevis oocytes; ±SD; n=8
T5 construct: expressed in transfected cells; host or cells: Xenopus laevis oocytes injected with cRNA (pTLN plasmid)
T5 sequence (P0C7B7 whole entry G270A): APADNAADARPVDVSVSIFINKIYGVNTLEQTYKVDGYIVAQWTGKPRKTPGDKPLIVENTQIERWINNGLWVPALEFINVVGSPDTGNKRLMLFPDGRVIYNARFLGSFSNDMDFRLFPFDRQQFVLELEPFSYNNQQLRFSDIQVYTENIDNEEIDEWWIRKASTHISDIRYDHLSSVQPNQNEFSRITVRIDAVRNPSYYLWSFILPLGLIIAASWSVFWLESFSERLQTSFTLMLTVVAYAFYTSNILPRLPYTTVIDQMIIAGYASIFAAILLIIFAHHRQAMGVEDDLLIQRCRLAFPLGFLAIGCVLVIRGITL
Excerpt: as §1, §2

[7] = system: ELIC F307A; set-up: method as in Henault et al.[9], [18], [29]; conditions: Xenopus laevis oocytes; ±SD; n=8; ref Henault et al.[9], [18], [29]; cited from earlier work
[8] = system: ELIC V315A; set-up: method as in Henault et al.[9], [18], [29]; conditions: Xenopus laevis oocytes; ±SD; n=9; ref Henault et al.[9], [18], [29]; cited from earlier work
[9] = biological target: T6, ELIC L204A (Dickeya chrysanthemi, UniProt P0C7B7, L204A); experiment: TEVC cysteamine-induced current, ELIC L204A; format: cell-based; conditions: Xenopus laevis oocytes; ±SD; n=8
T6 construct: expressed in transfected cells; host or cells: Xenopus laevis oocytes injected with cRNA
T6 sequence (P0C7B7 whole entry L204A): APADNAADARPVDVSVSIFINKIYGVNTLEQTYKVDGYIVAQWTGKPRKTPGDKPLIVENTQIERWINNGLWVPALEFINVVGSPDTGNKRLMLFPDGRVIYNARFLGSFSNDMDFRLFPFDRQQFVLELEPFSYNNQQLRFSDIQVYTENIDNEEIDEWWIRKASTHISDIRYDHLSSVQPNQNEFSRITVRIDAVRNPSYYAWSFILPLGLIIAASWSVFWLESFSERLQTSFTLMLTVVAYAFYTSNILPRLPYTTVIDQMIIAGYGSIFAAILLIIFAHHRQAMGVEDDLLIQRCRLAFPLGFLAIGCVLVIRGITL
Excerpt: as §1, §2

[10] = biological target: T7, ELIC W219A (Dickeya chrysanthemi, UniProt P0C7B7, W219A); experiment: TEVC cysteamine-induced current, ELIC W219A; format: cell-based; conditions: Xenopus laevis oocytes; ±SD; n=8
T7 construct: expressed in transfected cells; host or cells: Xenopus laevis oocytes injected with cRNA
T7 sequence (P0C7B7 whole entry W219A): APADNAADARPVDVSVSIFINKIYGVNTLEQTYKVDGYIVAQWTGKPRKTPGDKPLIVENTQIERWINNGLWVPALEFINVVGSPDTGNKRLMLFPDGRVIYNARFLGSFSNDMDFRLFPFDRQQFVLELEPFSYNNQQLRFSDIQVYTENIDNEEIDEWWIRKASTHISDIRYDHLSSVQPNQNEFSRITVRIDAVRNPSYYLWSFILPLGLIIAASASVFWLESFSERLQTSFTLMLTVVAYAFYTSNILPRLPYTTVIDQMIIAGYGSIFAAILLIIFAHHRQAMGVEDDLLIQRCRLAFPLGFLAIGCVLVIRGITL
Excerpt: as §1, §2

[11] = system: ELIC I296A; set-up: method as in Henault et al.[9], [18], [29]; conditions: Xenopus laevis oocytes; ±SD; n=10; ref Henault et al.[9], [18], [29]; cited from earlier work
[12] = biological target: T8, ELIC V260A (Dickeya chrysanthemi, UniProt P0C7B7, V260A); experiment: TEVC cysteamine-induced current, ELIC V260A; format: cell-based; conditions: Xenopus laevis oocytes; ±SD; n=8
T8 construct: expressed in transfected cells; host or cells: Xenopus laevis oocytes injected with cRNA
T8 sequence (P0C7B7 whole entry V260A): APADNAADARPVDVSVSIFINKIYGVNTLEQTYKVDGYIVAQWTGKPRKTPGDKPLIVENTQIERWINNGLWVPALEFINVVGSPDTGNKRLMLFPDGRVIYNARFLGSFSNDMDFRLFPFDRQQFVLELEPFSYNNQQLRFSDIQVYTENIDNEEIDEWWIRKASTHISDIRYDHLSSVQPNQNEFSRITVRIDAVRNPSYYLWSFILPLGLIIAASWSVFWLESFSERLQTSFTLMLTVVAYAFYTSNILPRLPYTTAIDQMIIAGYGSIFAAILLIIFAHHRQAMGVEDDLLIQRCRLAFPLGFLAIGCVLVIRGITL
Excerpt: as §1, §2

[13] = biological target: T9, ELIC G268A (Dickeya chrysanthemi, UniProt P0C7B7, G268A); experiment: TEVC cysteamine-induced current, ELIC G268A; format: cell-based; conditions: Xenopus laevis oocytes; ±SD; n=8
T9 construct: expressed in transfected cells; host or cells: Xenopus laevis oocytes injected with cRNA (pTLN plasmid)
T9 sequence (P0C7B7 whole entry G268A): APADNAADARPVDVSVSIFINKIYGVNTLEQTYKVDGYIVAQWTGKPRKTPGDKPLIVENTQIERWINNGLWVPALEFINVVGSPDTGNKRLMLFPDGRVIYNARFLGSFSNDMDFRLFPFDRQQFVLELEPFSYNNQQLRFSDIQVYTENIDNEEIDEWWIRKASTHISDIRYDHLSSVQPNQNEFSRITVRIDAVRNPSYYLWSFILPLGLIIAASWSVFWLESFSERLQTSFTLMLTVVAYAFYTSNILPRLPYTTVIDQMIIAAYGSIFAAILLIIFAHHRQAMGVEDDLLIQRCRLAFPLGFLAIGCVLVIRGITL
Excerpt: as §1, §2

[14] = biological target: T10, ELIC P304A (Dickeya chrysanthemi, UniProt P0C7B7, P304A); experiment: TEVC cysteamine-induced current, ELIC P304A; format: cell-based; conditions: Xenopus laevis oocytes; EC50 values were not obtained
T10 construct: expressed in transfected cells; host or cells: Xenopus laevis oocytes injected with cRNA (pTLN plasmid)
T10 sequence (P0C7B7 whole entry P304A): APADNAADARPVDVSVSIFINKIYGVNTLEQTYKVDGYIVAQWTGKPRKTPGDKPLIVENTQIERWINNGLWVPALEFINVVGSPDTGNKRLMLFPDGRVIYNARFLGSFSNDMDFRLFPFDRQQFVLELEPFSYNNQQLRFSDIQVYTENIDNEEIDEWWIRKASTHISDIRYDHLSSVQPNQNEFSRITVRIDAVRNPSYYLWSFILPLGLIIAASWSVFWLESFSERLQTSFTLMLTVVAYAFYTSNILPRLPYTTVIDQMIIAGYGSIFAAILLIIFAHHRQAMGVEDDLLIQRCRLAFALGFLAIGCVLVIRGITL
Excerpt: as §1, §2

[15] = system: ELIC F303A; set-up: method as in Henault et al.[9], [18], [29]; conditions: Xenopus laevis oocytes; ±SD; n=10; ref Henault et al.[9], [18], [29]; cited from earlier work
[16] = system: ELIC I319A; set-up: method as in Henault et al.[9], [18], [29]; conditions: Xenopus laevis oocytes; ±SD; n=11; ref Henault et al.[9], [18], [29]; cited from earlier work
[17] = biological target: T11, ELIC I215A (Dickeya chrysanthemi, UniProt P0C7B7, I215A); experiment: TEVC cysteamine-induced current, ELIC I215A; format: cell-based; conditions: Xenopus laevis oocytes; ±SD; n=8
T11 construct: expressed in transfected cells; host or cells: Xenopus laevis oocytes injected with cRNA
T11 sequence (P0C7B7 whole entry I215A): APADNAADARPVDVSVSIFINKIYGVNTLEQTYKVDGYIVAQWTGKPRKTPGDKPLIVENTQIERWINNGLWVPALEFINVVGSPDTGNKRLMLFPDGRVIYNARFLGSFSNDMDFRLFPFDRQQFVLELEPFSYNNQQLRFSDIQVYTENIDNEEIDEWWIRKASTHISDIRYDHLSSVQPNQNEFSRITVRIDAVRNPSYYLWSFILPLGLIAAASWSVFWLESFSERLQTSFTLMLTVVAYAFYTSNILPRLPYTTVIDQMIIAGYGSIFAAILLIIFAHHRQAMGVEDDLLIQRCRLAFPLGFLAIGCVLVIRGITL
Excerpt: as §1, §2

[18] = system: ELIC R300A; set-up: method as in Henault et al.[9], [18], [29]; conditions: Xenopus laevis oocytes; ±SD; n=11; ref Henault et al.[9], [18], [29]; cited from earlier work

NCCS [cysteamine]
EC50 [1]: 800 ± 110 µM | −logEC50 [1]: 3.10 ± 0.05 | EC50 [2]: 500 ± 100 µM | −logEC50 [2]: 3.30 ± 0.09 | EC50 [3]: 320 ± 20 µM | −logEC50 [3]: 3.49 ± 0.03 | EC50 [4]: 580 ± 40 µM | −logEC50 [4]: 3.24 ± 0.03 | EC50 [5]: 290 ± 50 µM | −logEC50 [5]: 3.54 ± 0.08 | EC50 [6]: 1020 ± 100 µM | −logEC50 [6]: 2.99 ± 0.04 | EC50 [7]: 570 ± 90 µM | −logEC50 [7]: 3.24 ± 0.07 | EC50 [8]: 600 ± 80 µM | −logEC50 [8]: 3.22 ± 0.06 | EC50 [9]: 3550 ± 310 µM | −logEC50 [9]: 2.45 ± 0.04 | EC50 [10]: 910 ± 50 µM | −logEC50 [10]: 3.04 ± 0.02 | EC50 [11]: 270 ± 30 µM | −logEC50 [11]: 3.57 ± 0.05 | EC50 [12]: 460 ± 50 µM | −logEC50 [12]: 3.34 ± 0.05 | EC50 [13]: 1190 ± 140 µM | −logEC50 [13]: 2.92 ± 0.05 | desensitization kinetics [14]: substantially altered desensitization kinetics | EC50 [15]: 190 ± 70 µM | −logEC50 [15]: 3.73 ± 0.17 | EC50 [16]: 860 ± 160 µM | −logEC50 [16]: 3.06 ± 0.08 | EC50 [17]: 320 ± 40 µM | −logEC50 [17]: 3.49 ± 0.05 | EC50 [18]: 400 ± 50 µM | −logEC50 [18]: 3.40 ± 0.05
